target: T1, human OX2 receptor (Homo sapiens, UniProt O43614); test: Measurement of orexin type 2 receptor agonist activity (Experimental Example 2; Fluo-4 AM calcium fluorescence, FDSS μCELL); type: cell-based; settings: compound at 3 μM; CHO cells expressing human OX2 receptor; DMSO = 0%, 10 nM orexin A (human) = 100%
T1 construct: expressed in transfected cells
T1 sequence (O43614 1-444): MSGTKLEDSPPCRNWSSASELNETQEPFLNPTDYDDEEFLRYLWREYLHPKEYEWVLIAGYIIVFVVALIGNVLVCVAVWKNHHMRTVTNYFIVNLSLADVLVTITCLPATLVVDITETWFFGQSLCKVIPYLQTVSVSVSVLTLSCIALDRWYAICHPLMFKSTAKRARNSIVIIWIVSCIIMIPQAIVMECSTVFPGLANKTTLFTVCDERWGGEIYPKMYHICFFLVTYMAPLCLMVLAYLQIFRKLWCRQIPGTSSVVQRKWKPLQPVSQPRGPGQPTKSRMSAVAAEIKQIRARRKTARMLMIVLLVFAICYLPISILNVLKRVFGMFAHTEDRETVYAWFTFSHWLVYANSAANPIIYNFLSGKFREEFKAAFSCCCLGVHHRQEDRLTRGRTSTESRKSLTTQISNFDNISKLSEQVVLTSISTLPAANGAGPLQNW
Protocol: In order to obtain cell clones that stably express human orexin type 2 receptor, human orexin type 2 (residues 1-444, NCBI Reference Sequence: AK314279) was constructed in a pcDNA3.1 (+) vector (Invitrogen) to express in mammalian cells. This plasmid DNA was transfected into CHO-K1 cells by electroporation, and stable clones were obtained by limiting dilution using resistance to G418 as a selection marker.
CHO cells in which human OX2 receptor was forcibly expressed were seeded at 10,000 cells/well into a 384-well black transparent bottom plate (BD falcon), and were incubated at 37° C., 5% CO2 for 1 day after incubation at room temperature for 30 minutes. After removing the cell plate medium, assay buffer containing calcium indicator A (HBSS (Thermo Fisher Scientific), 20 mM HEPES (Thermo Fisher Scientific), 0.1% BSA (Sigma-Aldrich), 2.5 μg/mL Fluo-4 AM (Dojin Kagaku), 0.08% Pluronic F127 (Dojin Kagaku), 1.25 mM probenecid (Dojin Kagaku)) was added at 30 μL/well. After incubation in a 5% CO2 incubator at 37° C. for 30 minutes, it was incubated at room temperature for another 30 minutes. Add 10 μL/well of the test compound diluted with assay buffer B (HBSS, 20 mM HEPES, 0.1% BSA), and use FDSS μCELL (Hamamatsu Photonics) to measure the fluorescence value every 1 second for 1 minute, and then every 2 seconds for 1 minute. It was measured for 1 minute and 40 seconds. The amount of fluorescence value when DMSO is added instead of the test compound is defined as 0%, and the amount of fluorescence value when orexin A (human) (Peptide Institute) with a final concentration of 10 nM is added is defined as 100%. The activity (%) of the test compound was calculated. Table 2-1, 2-2, 2-3, and 2-4 show the activity of each compound at a concentration of 3 μM.

OX2R agonist activity (3 μM, %) [%]	Structure (SMILES)
109	Cc1ccc2nc1Oc1cccc(c1F)C[C@H]1[C@@H](NS(=O)(=O)CF)C(F)(F)CN1C(=O)NC2 [Example 19, 1-fluoro-N-[(15aS,16R)-17,17,20-trifluoro-7-methyl-1-oxo-2,3,15a,16,17,18-hexahydro-1H,15H-4,8-(azeno)-10,14-(metheno)pyrrolo[1,2-j][1,8,10]oxadiazacyclo-heptadecin-16-yl]methanesulfonamide]
105	CCS(=O)(=O)N[C@H]1CCN2C(=O)NCc3nc(c(F)cc3F)Oc3cccc(c3)C[C@@H]12 [Example 20, N-[(15aS,16S)-5,7-difluoro-1-oxo-2,3,15a,16,17,18-hexahydro-1H,15H-4,8-(azeno)-14,10-(metheno)pyrrolo[1,2-j][1,8,10]oxadiazacyclo-heptadecin-16-yl]ethanesulfonamide]
100	CCS(=O)(=O)N[C@@H]1[C@@H]2Cc3cccc(c3F)Oc3nc(c(F)cc3F)CNC(=O)N2CC1(F)F [Example 21, N-[(15aS,16R)-5,7,17,17,20-pentafluoro-1-oxo-2,3,15a,16,17,18-hexahydro-1H,15H-4,8-(azeno)-14,10-(metheno)pyrrolo[1,2-j][1,8,10]oxadiazacyclo-heptadecin-16-yl]ethanesulfonamide]
96	Cc1ccc2nc1Oc1cccc(c1F)C[C@H]1[C@@H](NS(=O)(=O)C3CC3)C(F)(F)CN1C(=O)NC2 [Example 23, N-[(15aS,16R)-17,17,20-trifluoro-7-methyl-1-oxo-2,3,15a,16,17,18-hexahydro-1H,15H-4,8-(azeno)-14,10-(metheno)pyrrolo[1,2-j][1,8,10]oxadiazacyclo-heptadecin-16-yl]cyclopropanesulfonamide]
104	CCS(=O)(=O)N[C@H]1[C@@H](F)CN2C(=O)NCc3ccc(Cl)c(n3)Oc3cccc(c3F)C[C@@H]12 [Example 24, N-[(15aS,16R,17S)-7-chloro-17,20-difluoro-1-oxo-2,3,15a,16,17,18-hexahydro-1H,15H-4,8-(azeno)-14,10-(metheno)pyrrolo[1,2-j][1,8,10]oxadiazacyclo-heptadecin-16-yl]ethanesulfonamide]
105	CCS(=O)(=O)N[C@H]1[C@@H](F)CN2C(=O)NCc3ccc(C)c(n3)Oc3cccc(c3F)C[C@@H]12 [Example 25, N-[(15aS,16R,17S)-17,20-difluoro-7-methyl-1-oxo-2,3,15a,16,17,18-hexahydro-1H,15H-4,8-(azeno)-14,10-(metheno)pyrrolo[1,2-j][1,8,10]oxadiazacyclo-heptadecin-16-yl]ethanesulfonamide]
102	CCS(=O)(=O)N[C@@H]1[C@@H]2Cc3cccc(c3F)Oc3nc(ccc3OC)CNC(=O)N2CC1(F)F [Example 26, N-[(15aS,16R)-17,17,20-trifluoro-7-methoxy-1-oxo-2,3,15a,16,17,18-hexahydro-1H,15H-4,8-(azeno)-10,14-(metheno)pyrrolo[1,2-j][1,8,10]oxadiazacyclo-heptadecin-16-yl]ethanesulfonamide]
102	CCS(=O)(=O)N[C@H]1[C@@H](F)CN2C(=O)NCc3ccc(C(F)F)c(n3)Oc3cccc(c3F)C[C@@H]12 [Example 27, N-[(15aS,16R,17S)-7-(difluoromethyl)-17,20-difluoro-1-oxo-2,3,15a,16,17,18-hexahydro-1H,15H-8,4-(azeno)-10,14-(metheno)pyrrolo[1,2-j][1,8,10]oxadiazacyclo-heptadecin-16-yl]ethanesulfonamide]
94	O=C1NCc2ccc(C(F)F)c(n2)Oc2cccc(c2F)C[C@H]2[C@@H](NS(=O)(=O)C3CC3)[C@@H](F)CN12 [Example 28, N-[(15aS,16R,17S)-7-(difluoromethyl)-17,20-difluoro-1-oxo-2,3,15a,16,17,18-hexahydro-1H,15H-8,4-(azeno)-10,14-(metheno)pyrrolo[1,2-j][1,8,10]oxadiazacyclo-heptadecin-16-yl]cyclopropanesulfonamide]
100	CCS(=O)(=O)N[C@@H]1[C@@H]2Cc3cccc(c3F)Oc3nc(ccc3C(F)F)CNC(=O)N2CC1(F)F [Example 29, N-[(15aS,16R)-7-(difluoromethyl)-17,17,20-trifluoro-1-oxo-2,3,15a,16,17,18-hexahydro-1H,15H-4,8-(azeno)-10,14-(metheno)pyrrolo[1,2-j][1,8,10]oxadiazacyclo-heptadecin-16-yl]ethanesulfonamide]
102	CS(=O)(=O)N[C@@H]1[C@@H]2Cc3cccc(c3F)Oc3nc(c(F)cc3Cl)CNC(=O)N2CC1(F)F [Example 30, N-[(15aS,16R)-7-chloro-5,17,17,20-tetrafluoro-1-oxo-2,3,15a,16,17,18-hexahydro-1H,15H-4,8-(azeno)-14,10-(metheno)pyrrolo[1,2-j][1,8,10]oxadiazacyclo-heptadecin-16-yl]methanesulfonamide]
102	CCS(=O)(=O)N[C@H]1[C@@H](F)CN2C(=O)NCc3ccc(F)c(n3)Oc3cccc(c3F)C[C@@H]12 [Example 31, N-[(15aS,16R,17S)-7,17,20-trifluoro-1-oxo-2,3,15a,16,17,18-hexahydro-1H,15H-4,8-(azeno)-14,10-(metheno)pyrrolo[1,2-j][1,8,10]oxadiazacyclo-heptadecin-16-yl]ethanesulfonamide]
101	CCS(=O)(=O)N[C@@H]1[C@@H]2Cc3cccc(c3F)Oc3nc(c(F)cc3C)CNC(=O)N2CC1(F)F [Example 32, N-[(15aS,16R)-5,17,17,20-tetrafluoro-7-methyl-1-oxo-2,3,15a,16,17,18-hexahydro-1H,15H-4,8-(azeno)-14,10-(metheno)pyrrolo[1,2-j][1,8,10]oxadiazacyclo-heptadecin-16-yl]ethanesulfonamide]
93	CN(C)S(=O)(=O)N[C@H]1[C@@H](F)CN2C(=O)NCc3ccc(Cl)c(n3)Oc3cccc(c3F)C[C@@H]12 [Example 34, N′-[(15aS,16R,17S)-7-chloro-17,20-difluoro-1-oxo-2,3,15a,16,17,18-hexahydro-1H,15H-4,8-(azeno)-14,10-(metheno)pyrrolo[1,2-j][1,8,10]oxadiazacyclo-heptadecin-16-yl]-N,N-dimethylsulfuric diamide]
93	CCS(=O)(=O)N[C@@H]1[C@@H]2Cc3cccc(c3F)Oc3nc(c(F)cc3Cl)CNC(=O)N2CC1(F)F [Example 35, N-[(15aS,16R)-7-chloro-5,17,17,20-tetrafluoro-1-oxo-2,3,15a,16,17,18-hexahydro-1H,15H-4,8-(azeno)-10,14-(metheno)pyrrolo[1,2-j][1,8,10]oxadiazacyclo-heptadecin-16-yl]ethanesulfonamide]
101	CN(C)S(=O)(=O)N[C@H]1[C@@H](F)CN2C(=O)NCc3ccc(C(F)F)c(n3)Oc3cccc(c3F)C[C@@H]12 [Example 37, N′-[(15aS,16R,17S)-7-(difluoromethyl)-17,20-difluoro-1-oxo-2,3,15a,16,17,18-hexahydro-1H,15H-8,4-(azeno)-10,14-(metheno)pyrrolo[1,2-j][1,8,10]oxadiazacyclo-heptadecin-16-yl]-N,N-dimethylsulfuric diamide]
80	CS(=O)(=O)N[C@H]1[C@@H](F)CN2C(=O)OCc3ccc(C(F)F)c(n3)Oc3cccc(c3F)C[C@@H]12 [Example 38, N-[(15aS,16R,17S)-7-(difluoromethyl)-17,20-difluoro-1-oxo-15a,16,17,18-tetrahydro-1H,3H,15H-8,4-(azeno)-10,14-(metheno)pyrrolo[1,2-c][1,11,3]dioxazacyclo-heptadecin-16-yl]methanesulfonamide]
105	CCS(=O)(=O)N[C@H]1[C@@H](F)CN2C(=O)NCc3ccc(Cl)c(c3)Oc3cccc(c3F)C[C@@H]12 [Example 39, N-[(15aS,16R,17S)-7-chloro-17,20-difluoro-1-oxo-2,3,15a,16,17,18-hexahydro-1H,15H-4,8:14,10-di(metheno)pyrrolo[1,2-j][1,8,10]oxadiazacyclo-heptadecin-16-yl]ethanesulfonamide]

Reference: patent publication US20240309016A1, “MACROCYCLIC HETEROCYCLE COMPOUNDS AND USE THEREOF” (TAKEDA PHARMACEUTICAL COMPANY LIMITED, priority 2023, published 2024)
